The test system of test [1] is ERK1/2. The test can be described thus: ERK1/2 phosphorylation ELISA in HUVEC. It is filed as cell-based, human. Particulars: 30 min. As to the method:
VEGF bound to substrates was assayed indirectly by measuring remaining VEGF in coating solution with a sandwich ELISA kit according to the manufacturer's instructions (DuoSetDY293B, R&D Systems). Levels of phosphorylation of ERK1/2 in HUVECs seeded onto functionalized surfaces were assessed after 30 min incubation using DuoSet ELISA kit following the manufacturer's instructions (DuoSetDYC1018B, R&D Systems). Human umbilical vein endothelial cells (HUVEC) (Cellworks) were maintained in HLVEC complete media (Cellworks). For any experiment, cells with not higher than 10 population doublings were used (usually corresponding up to P5). For network formation experiments, cell seeding density was optimized, and cells were eventually seeded at 10,000 cells/cm^2. Seeding was done on protein-functionalized and control polymer-coated substrates, and cells were left to adhere in a CO2 incubator at 37° C. After 16 h, medium was removed and replaced with fibrinogen solution (20 mg/ml) in HLVEC complete media, containing also 50 U/ml of thrombin and 1.2 mg/ml of aprotinin; to allow complete fibrinogen clotting, samples were placed in CO2 incubator for 1 h. After clotting, fibrin matrix was covered with 0.5 ml HLVEC complete media with 25 ng/ml of VEGF where required, and samples were kept at 37° C. for 6 day period, with media changed every second day.

For test [2], the target named is VEGFR-2 (Homo sapiens, UniProt P35968). As to the method: The most direct way to look at VEGF effect on downstream signaling was to assess its receptor phosphorylation. An immunofluorescence test for presence of phosphorylated VEGFR-2 was performed on standard HUVEC culture on tissue plastics, when cells were stimulated with 25 ng/ml of VEGF for two different time periods (2 min and 30 min). […] Therefore it was decided to assay phosphorylation of one of the downstream effectors, ERK1/2 which is activated via MAPK branch of GF receptor signaling.

Test [3] relates to Murine embryonic mesenchymal stem cells (mMSCs) C3H10T1/2. Put plainly: Inhibition of contractility in mMSCs. It is filed as cell-based. Particulars: for osteogenic marker expression: mMSCs on all substrates, 20 μM inhibitor; for Staining for pMLC / expression of stemness markers (Sca1, CD29): mMSCs; for Staining for pMLC: 10 and 20 μM inhibitor; for expression of stemness markers (Sca1, CD29): 15 days, basal conditions with inhibitor.

Test [4] deals with Human bone marrow mesenchymal stem cells (hMSCs). Put plainly: Alkaline phosphatase staining of hMSCs. It is filed as cell-based. To be noted: 28 days, noggin 50 ng/ml.
Experimental: Human bone marrow mesenchymal stem cells (hMSCs) from Promocell were maintained in basal media (αMEM, 10% FBS, 1% P/S, 1% fungizone, 2 mM L-glutamine, 1 ng/ml FGF-2) at 37° C. with 5% CO2. Cells were seeded onto the materials at 10^4 cells/cm2 using seeding media (DMEM high glucose, 1% P/S, 1% FBS,) and media were changed twice a week. For all cultures the first 2 hours (initial cell adhesion) were in absence of serum and GF. Cells were used at passages P0-P3. Each experiment was performed in triplicate.
Cells were cultured on materials for 28 days. Noggin (50 ng/ml) was added in a set of samples and phosphate deposition was analysed by an Alkaline Phosphatase assay (Sigma, 86C-1KT). Cells were fixed with the fixative solution (citrate-acetone-formaldehide solution) at RT for 30 s. Afterwards, samples were stained with the alkaline-dye mixture and incubated at RT in darkness for 15 min. Samples were counterstained for 2 minutes with neutral red solution and rinsed in tap water.
The target in test [5] is Fibronectin (FN) from human plasma adsorbed on poly(ethyl acrylate) (PEA), organised into a fibrillar (nano)network (human) (UniProt P02751). Put plainly: sandwich ELISA of BMP-2 released from FN-coated surfaces.
Test [6] has the same target. The test can be described thus: ELISA; BMP-2 adsorbed on FN-coated polymer implant tubes.
The target is the same in test [7]. The test can be described thus: ELISA; BMP-2 adsorbed from 5 µg/ml on FN-coated polymer implant tubes.

Sequence of VEGFR-2 (P35968 20-1356): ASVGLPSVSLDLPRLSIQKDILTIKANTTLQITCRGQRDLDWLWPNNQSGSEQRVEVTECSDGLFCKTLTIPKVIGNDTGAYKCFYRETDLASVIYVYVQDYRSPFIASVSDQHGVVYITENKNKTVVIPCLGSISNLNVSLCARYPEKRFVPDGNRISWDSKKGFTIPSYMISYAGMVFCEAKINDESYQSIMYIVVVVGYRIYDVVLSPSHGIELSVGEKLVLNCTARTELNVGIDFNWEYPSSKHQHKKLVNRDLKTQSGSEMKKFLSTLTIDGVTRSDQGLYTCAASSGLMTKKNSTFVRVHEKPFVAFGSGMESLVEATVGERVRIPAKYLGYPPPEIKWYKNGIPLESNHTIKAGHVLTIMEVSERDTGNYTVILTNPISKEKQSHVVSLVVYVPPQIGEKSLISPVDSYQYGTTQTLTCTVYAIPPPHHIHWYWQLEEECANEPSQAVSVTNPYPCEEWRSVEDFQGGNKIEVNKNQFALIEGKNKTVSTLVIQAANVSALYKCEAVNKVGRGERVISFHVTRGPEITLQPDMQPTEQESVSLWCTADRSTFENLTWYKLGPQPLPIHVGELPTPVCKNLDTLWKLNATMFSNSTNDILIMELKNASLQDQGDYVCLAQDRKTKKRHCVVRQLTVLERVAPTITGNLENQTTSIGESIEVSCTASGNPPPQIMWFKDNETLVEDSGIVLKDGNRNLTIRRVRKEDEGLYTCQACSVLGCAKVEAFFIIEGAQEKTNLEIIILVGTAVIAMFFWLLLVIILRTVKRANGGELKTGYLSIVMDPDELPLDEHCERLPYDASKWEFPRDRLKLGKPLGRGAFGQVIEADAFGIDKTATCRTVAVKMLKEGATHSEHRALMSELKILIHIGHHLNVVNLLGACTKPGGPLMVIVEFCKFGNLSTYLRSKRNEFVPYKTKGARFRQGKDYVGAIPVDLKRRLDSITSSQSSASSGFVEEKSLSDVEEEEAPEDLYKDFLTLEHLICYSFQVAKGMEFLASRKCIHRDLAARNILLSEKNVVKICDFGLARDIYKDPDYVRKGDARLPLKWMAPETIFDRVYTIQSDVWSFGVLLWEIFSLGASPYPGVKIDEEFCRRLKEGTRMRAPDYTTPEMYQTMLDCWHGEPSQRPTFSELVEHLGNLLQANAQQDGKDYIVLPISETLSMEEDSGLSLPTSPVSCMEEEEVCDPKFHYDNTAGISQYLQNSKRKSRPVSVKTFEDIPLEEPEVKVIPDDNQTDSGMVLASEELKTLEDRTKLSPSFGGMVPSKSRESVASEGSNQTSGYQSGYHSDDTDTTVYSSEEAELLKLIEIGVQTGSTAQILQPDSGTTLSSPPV

For the molecule VEGF, the “ERK1/2 phosphorylation, VEGF present in the medium” value in test [1] (PEA samples vs PEA sample without VEGF) is listed as “did not show any difference”. Also, the “ERK1/2 phosphorylation, VEGF coated on PEA” value in test [1] (vs PEA without bound VEGF) is recorded as “higher level”. Moreover, in test [2], the “phosphorylated VEGFR-2 after 2 min” value is on record as “present” and the “phosphorylated VEGFR-2 after 30 min” value is “no phosphorylation was detected”.
On to `C[C@@H](N)[C@H]1CC[C@H](C(=O)Nc2ccncc2)CC1` [Y-27632], for which, in test [3], the osteogenic marker expression entry is listed as “greatly reduced”; the “Staining for pMLC” value is listed as “reduced in a dose-dependent manner”; the “expression of stemness markers (Sca1, CD29)” value is “strongly reduced”.
For `Cc1ccc2c(c1)C(=O)C1(O)CCN(c3ccccc3)C1=N2` (centres unmarked) [blebbistatin] the same measures were “greatly reduced”, “reduced in a dose-dependent manner” and “strongly reduced”.

B1: noggin: used as BMP-2 inhibitor to prevent activity (50 ng/ml) (protein)
chain: QHYLHIRPAPSDNLPLVDLIEHPDPIFDPKEKDLNETLLRSLLGGHYDPGFMATSPPEDRPGGGGGAAGGAEDLAELDQLLRQRPSGAMPSEIKGLEFSEGLAQGKKQRLSKKLRRKLQMWLWSQTFCPVLYAWNDLGSRFWPRYVKVGSCFSKRSCSVPEGMVCKPSKSVHLTVLRWRCQRRGGQRCGWIPIQYPIISECKCSC
In the case of B1, in test [4], the “PEA driven FN/BMP-2 osteogenic differentiation (ALP)” value is “reduced”.

B2: BMP-2 (R&D Systems, 355-BM or 355-BM/CF) (ligand, UniProt P12643 283-396, looked up)
chain: QAKHKQRKRLKSSCKRHPLYVDFSDVGWNDWIVAPPGYHAFYCHGECPFPLADHLNSTNHAIVQTLVNSVNSKIPKACCVPTELSAISMLYLDENEKVVLKNYQDMVVEGCGCR
B2: the BMP-2 released after 14 days in test [5] was below 10%. In test [6], this molecule showed an amount of BMP-2 on the coated tube of 15 ng. For the same molecule, the surface density in test [7] worked out at 100 ng/cm^2.
